The values below come from US11267831B2, “EF-Tu-binding metal-containing antibiotic” (Ruhr-Universitaet Bochum, priority 2017, dated 2022).

The experiment deals with B. subtilis. The experiment in a line: Proteome analysis via 2D-PAGE with 35S-methionine labelling of newly synthesized proteins. It is filed as cell-based, Bacillus subtilis. The settings on record: 3 μg/ml DS50, 0.15 μg/ml nocathiacin I, 8 μg/ml GE2270 A or 50 μg/ml kirromycin, 15 min. The protocol: B. subtilis was grown to an OD500 of 0.35 in BMM and treated with 3 μg/ml DS50 or 12 μg/ml biotin-DS50 for 15 min or left untreated as control. The following concentrations were used for the reference antibiotics: 0.15 μg/ml nocathiacin I, 8 μg/ml GE2270 A or 50 μg/ml kirromycin. Radioactive labelling of newly synthesized proteins during antibiotic treatment with ^35S-methionine and 2D-PAGE analysis were essentially performed as described^38.
Protein spots were cut out of the gel and decolorized twice in a washing solution (20 mM ammonium bicarbonate, 30% acetonitrile). Disulfide bridges in proteins from gel pieces obtained from 1D-PAGE gels were reduced with 10 mM DTT in wash solution at 60° C. for 45 min. Cysteine alkylation was then performed with 50 mM iodoacetamide (IAA) in a washing solution for 25 min at room temperature in the dark. The gel pieces were washed twice with washing solution for 5 min at room temperature. The reduction and alkylation steps were omitted for samples from 2D-PAGE experiments. […] Gradient for identification of proteins from 1D-PAGE: initial, 0.5% eluant B (0.1% formic acid (FA) in acetonitrile); 1 min, 0.5% eluant B; 45 min, 60% eluant B; 48 min, 90% eluant B; 49 min, 99% eluant B; 51 min, 99% eluant B; 52 min, 0.5% eluant B; 60 min, 0.5% eluant B. 0.1% FA in water served as eluent A. Gradient for the identification of proteins from 2D-PAGE: initial, 0.5% eluent B; 22 min, 50% eluent B; 23 min, 99% eluent B; 26 min, 99% eluent B; 27 min, 0.5% eluent B; 30 min, 0.5% eluent B. Continuous MS^E spectra were recorded in a mass range of 50-1200 m/z and with a scanning time of […] in positive resolution mode with the following settings: Capillary voltage, 1.7 kV; cone voltage, 30 V; source temperature, 100° C.; cone gas flow, 50 l/h; desolvation gas flow, 500 l/h; desolvation temperature, 150° C. […] For protein identification, a database with 4180 proteins of B. subtilis was used (NCBI reference sequence: NC_000964.3, manually added: trypsin, keratin, quantification standard PhosB). […]
On to `C=C(NC(=O)c1csc(-c2nc3c(cc2O)-c2nc(cs2)C(=O)N[C@@H]([C@@H](C)O)C(=O)N/C(=C(\C)OC)c2nc(cs2)C(=O)N[C@@H]2c4nc(cs4)C(=O)N[C@@H](COC(=O)c4c5c6c(cccc6n4O)COC(=O)[C@@H](O[C@H]4C[C@](C)(O)[C@H](N(C)C)[C@H](C)O4)[C@H]2OC5)c2nc-3cs2)n1)C(N)=O.O=C(O)C(F)(F)F` [nocathiacin I], for which the “protein biosynthesis compared to control conditions” value is −15%.
With kirromycin the entry was “not affected”; with `CNC(=O)C[C@@H]1NC(=O)c2csc(n2)-c2ccc(-c3nc(C4=N[C@H](C(=O)N5CCC[C@H]5C(N)=O)CO4)cs3)nc2-c2csc(n2)-c2csc(n2)[C@H]([C@@H](O)c2ccccc2)NC(=O)CNC(=O)c2nc(sc2COC)[C@H](C(C)C)NC(=O)c2nc1sc2C` [GE2270 A], −65%.
